The structures appear in SMILES notation. A value given as a limit tells only on which side of the number the result lay.

The experiment addresses recombinant CD73 (Homo sapiens (Human), UniProt P21589). Kind of experiment: Inhibition of the CD73 enzyme in vitro (soluble recombinant CD73, AMP, Malachite Green). Format: biochemical. To be noted: recombinant CD73 0.5 nM, AMP 50 μM, 30 minutes at room temperature. On the procedure:
The concentration of inorganic phosphate was determined using a phosphate standard curve.

Sequence of recombinant CD73 (P21589 27-547): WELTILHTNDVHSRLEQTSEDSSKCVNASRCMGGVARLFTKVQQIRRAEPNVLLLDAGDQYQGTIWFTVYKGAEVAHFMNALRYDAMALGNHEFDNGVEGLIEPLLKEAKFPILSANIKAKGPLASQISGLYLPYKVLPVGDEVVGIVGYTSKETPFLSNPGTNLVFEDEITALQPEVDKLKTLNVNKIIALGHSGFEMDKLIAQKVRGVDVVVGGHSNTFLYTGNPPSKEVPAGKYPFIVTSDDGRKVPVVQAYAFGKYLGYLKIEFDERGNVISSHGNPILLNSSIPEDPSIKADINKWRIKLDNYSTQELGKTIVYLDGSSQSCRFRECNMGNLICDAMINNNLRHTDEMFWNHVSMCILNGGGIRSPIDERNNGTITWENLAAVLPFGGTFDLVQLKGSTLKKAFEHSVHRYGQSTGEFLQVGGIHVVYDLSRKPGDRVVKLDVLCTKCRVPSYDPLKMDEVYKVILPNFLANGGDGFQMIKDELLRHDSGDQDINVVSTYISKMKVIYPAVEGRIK

As for `Nc1nc(Cl)nc2c1ncn2[C@@H]1O[C@H](COC(Cc2ccc(OCc3ccccc3)cc2)(C(=O)O)C(=O)O)[C@@H](O)[C@@H]1F` [compound 65, 2-(((2R,3R,4S,5R)-5-(6-amino-2-chloro-9H-purin-9-yl)-4-fluoro-3-hydroxytetrahydrofuran-2-yl)methoxy)-2-(4-(benzyloxy)benzyl)malonic acid], the 50% inhibitory concentration (IC50) (commonly the point on the concentration scale where inhibition reaches its midpoint) was 31 nM.
`Nc1nc(Cl)nc2c1ncn2[C@@H]1O[C@H](COC(Cc2ccc(O)cc2)(C(=O)O)C(=O)O)[C@@H](O)[C@@H]1F` [compound 66, 2-(((2R,3R,4S,5R)-5-(6-amino-2-chloro-9H-purin-9-yl)-4-fluoro-3-hydroxytetrahydrofuran-2-yl)methoxy)-2-(4-hydroxybenzyl) malonic acid]: the IC50 was determined as 133 nM.
For `Nc1nc(Cl)nc2c1ncn2[C@@H]1O[C@H](COC(Cc2csc(C(=O)O)n2)(C(=O)O)C(=O)O)[C@@H](O)[C@@H]1F` [compound 68, 2-(((2R,3R,4S,5R)-5-(6-amino-2-chloro-9H-purin-9-yl)-4-fluoro-3-hydroxytetrahydro-furan-2-yl)methoxy)-2-((2-carboxythiazol-4-yl)methyl)malonic acid] the value was 322 nM.
Consider `Nc1nc(Cl)nc2c1ncn2[C@@H]1O[C@H](COC(Cc2csc(C(=O)O)c2)(C(=O)O)C(=O)O)[C@@H](O)[C@@H]1F` [compound 76, 2-(((2R,3R,4S,5R)-5-(6-amino-2-chloro-9H-purin-9-yl)-4-fluoro-3-hydroxytetrahydro-furan-2-yl)methoxy)-2-((5-carboxythiophen-3-yl)methyl)malonic acid], for which the IC50 stood at 74 nM.
As to `Nc1nc(Cl)nc2c1ncn2[C@@H]1O[C@H](COC(Cc2ccc(C(=O)O)s2)(C(=O)O)C(=O)O)[C@@H](O)[C@@H]1F` [compound 77, 2-(((2R,3R,4S,5R)-5-(6-amino-2-chloro-9H-purin-9-yl)-4-fluoro-3-hydroxytetrahydro-furan-2-yl)methoxy)-2-((5-carboxythiophen-2-yl)methyl)malonic acid], the IC50 was determined as 255 nM.
Consider `Nc1nc(Cl)nc2c1ncn2[C@@H]1O[C@H](COC(Cc2ccc(CC(=O)O)cc2)(C(=O)O)C(=O)O)[C@@H](O)[C@@H]1F` [compound 78, 2-(((2R,3R,4S,5R)-5-(6-amino-2-chloro-9H-purin-9-yl)-4-fluoro-3-hydroxytetrahydrofuran-2-yl)methoxy)-2-(4-(carboxymethyl)benzyl) malonic acid], for which the IC50 stood at 86 nM.
The figure for `Nc1nc(Cl)nc2c1ncn2[C@@H]1O[C@H](COC(Cc2ccc(Cl)cc2F)(C(=O)O)C(=O)O)[C@@H](O)[C@@H]1F` [compound 80, 2-(((2R,3R,4S,5R)-5-(6-amino-2-chloro-9H-purin-9-yl)-4-fluoro-3-hydroxytetrahydrofuran-2-yl)methoxy)-2-(4-chloro-2-fluorobenzyl)malonic acid] is 44 nM.
`Nc1nc(Cl)nc2c1ncn2[C@@H]1O[C@H](COC(Cc2cc(C(=O)O)no2)(C(=O)O)C(=O)O)[C@@H](O)[C@@H]1F` [compound 83, 2-(((2R,3R,4S,5R)-5-(6-amino-2-chloro-9H-purin-9-yl)-4-fluoro-3-hydroxytetrahydrofuran-2-yl)methoxy)-2-((3-carboxyisoxazol-5-yl)methyl)malonic acid]: the IC50 is 6440 nM.
`COc1ccc(CC(OC[C@H]2O[C@@H](n3cnc4c(N)nc(Cl)nc43)[C@@H](F)[C@@H]2O)(C(=O)O)C(=O)O)cc1Cl` [compound 85, 2-(((2R,3R,4S,5R)-5-(6-amino-2-chloro-9H-purin-9-yl)-4-fluoro-3-hydroxytetrahydrofuran-2-yl)methoxy)-2-(3-chloro-4-methoxybenzyl)malonic acid]: the IC50 was 183 nM.
`Nc1nc(Cl)nc2c1ncn2[C@@H]1O[C@H](COC(Cc2ccc(S(N)(=O)=O)cc2)(C(=O)O)C(=O)O)[C@@H](O)[C@@H]1F` [compound 86, 2-(((2R,3R,4S,5R)-5-(6-amino-2-chloro-9H-purin-9-yl)-4-fluoro-3-hydroxytetrahydrofuran-2-yl)methoxy)-2-(4-sulfamoylbenzyl)malonic acid]: the half-maximal inhibitory concentration (IC50) was 62 nM.
Turning to `Nc1nc(Cl)nc2c1ncn2[C@@H]1O[C@H](COC(Cc2ccc(C(=O)NCCC(=O)O)cc2)(C(=O)O)C(=O)O)[C@@H](O)[C@@H]1F` [compound 87, 2-(((2R,3R,4S,5R)-5-(6-amino-2-chloro-9H-purin-9-yl)-4-fluoro-3-hydroxytetrahydro-furan-2-yl)methoxy)-2-(4-((2-carboxy-ethyl)carbamoyl)benzyl) malonic acid], the IC50 amounted to 83 nM.
The figure for `Nc1nc(Cl)nc2c1ncn2[C@@H]1O[C@H](COC(Cc2ccc3oc(C(=O)O)cc3c2)(C(=O)O)C(=O)O)[C@@H](O)[C@@H]1F` [compound 88, 2-(((2R,3R,4S,5R)-5-(6-amino-2-chloro-9H-purin-9-yl)-4-fluoro-3-hydroxytetrahydro-furan-2-yl)methoxy)-2-((2-carboxybenzofuran-5-yl)methyl)malonic acid] is 238 nM.
Take `Nc1nc(Cl)nc2c1ncn2[C@@H]1O[C@H](COC(Cc2ccc(OCC(F)(F)F)cc2)(C(=O)O)C(=O)O)[C@@H](O)[C@@H]1F` [compound 89, 2-(((2R,3R,4S,5R)-5-(6-amino-2-chloro-9H-purin-9-yl)-4-fluoro-3-hydroxytetrahydrofuran-2-yl)methoxy)-2-(4-(2,2,2-trifluoroethoxy)benzyl) malonic acid]: the concentration for half-maximal inhibition (IC50) stood at 43 nM.
On to `Nc1nc(Cl)nc2c1ncn2[C@@H]1O[C@H](COC(Cc2ccc(OCC(=O)O)cc2)(C(=O)O)C(=O)O)[C@@H](O)[C@@H]1F` [compound 92, 2-(((2R,3R,4S,5R)-5-(6-amino-2-chloro-9H-purin-9-yl)-4-fluoro-3-hydroxytetrahydrofuran-2-yl)methoxy)-2-(4-(carboxymethoxy)benzyl) malonic acid], for which the concentration for half-maximal inhibition (IC50) turned out to be 172 nM.
In the case of `Cc1nnc(-c2ccc(CC(OC[C@H]3O[C@@H](n4cnc5c(N)nc(Cl)nc54)[C@@H](F)[C@@H]3O)(C(=O)O)C(=O)O)cc2)o1` [compound 94, 2-(((2R,3R,4S,5R)-5-(6-amino-2-chloro-9H-purin-9-yl)-4-fluoro-3-hydroxytetrahydrofuran-2-yl)methoxy)-2-(4-(5-methyl-1,3,4-oxadiazol-2-yl)benzyl) malonic acid], the IC50 was 906 nM.
For `N#Cc1ccccc1-c1ccc(CC(OC[C@H]2O[C@@H](n3cnc4c(N)nc(Cl)nc43)[C@@H](F)[C@@H]2O)(C(=O)O)C(=O)O)cc1` [compound 95] the value was 105 nM; for `Nc1nc(Cl)nc2c1ncn2[C@@H]1O[C@H](COC(Cc2csc3ccc(Cl)cc23)(C(=O)O)C(=O)O)[C@@H](O)[C@@H]1F` [compound 96, 2-(((2R,3R,4S,5R)-5-(6-amino-2-chloro-9H-purin-9-yl)-4-fluoro-3-hydroxytetrahydrofuran-2-yl)methoxy)-2-((5-chlorobenzo[b]thiophen-3-yl)methyl)-malonic acid], 788 nM; for `Nc1nc(Cl)nc2c1ncn2[C@@H]1O[C@H](COC(Cc2nc3ccccc3s2)(C(=O)O)C(=O)O)[C@@H](O)[C@@H]1F` [compound 97, 2-(((2R,3R,4S,5R)-5-(6-amino-2-chloro-9H-purin-9-yl)-4-fluoro-3-hydroxytetrahydrofuran-2-yl)methoxy)-2-(benzo[d]thiazol-2-ylmethyl)malonic acid], 3430 nM.
Take `CNC(=O)c1ccc(CC(OC[C@H]2O[C@@H](n3cnc4c(N)nc(Cl)nc43)[C@@H](F)[C@@H]2O)(C(=O)O)C(=O)O)cc1` [compound 98, 2-(((2R,3R,4S,5R)-5-(6-amino-2-chloro-9H-purin-9-yl)-4-fluoro-3-hydroxytetrahydrofuran-2-yl)methoxy)-2-(4-(methylcarbamoyl)benzyl) malonic acid]: the half-inhibitory concentration (IC50) stood at 512 nM.
Regarding `C[C@@]1(O)[C@H](O)[C@@H](COC(Cc2ccc(C(=O)O)cc2)(C(=O)O)C(=O)O)O[C@H]1n1cnc2c(N)nc(Cl)nc21` [compound 107], the IC50 was found to be 42500 nM.
On to `C[C@@]1(F)[C@H](O)[C@@H](COC(Cc2ccc(C(=O)O)cc2)(C(=O)O)C(=O)O)O[C@H]1n1cnc2c(N)nc(Cl)nc21` [compound 117], for which the half-maximal inhibitory concentration (IC50) turned out to be 63900 nM.
For `CCOC(=O)C(Cc1ccccc1)(OC[C@@H]1C[C@H](F)[C@H](n2cnc3c(N)nc(Cl)nc32)O1)C(=O)OCC` [compound 118], the 50% inhibitory concentration (IC50) is more than 200000 nM.
As for `Nc1nc(Cl)nc2c1ncn2[C@@H]1O[C@H](COC(Cc2ccccc2)(C(=O)O)C(=O)O)C[C@@H]1F` [compound 119], the concentration for half-maximal inhibition (IC50) was found to be 28000 nM.
In the case of `COc1nc(N)c2ncn([C@@H]3O[C@H](COC(Cc4ccccc4)(C(=O)O)C(=O)O)C[C@@H]3F)c2n1` [compound 120], the IC50 came out at 54500 nM.
As to `Nc1nc(Cl)nc2c1ncn2[C@@H]1O[C@H](COC(Cc2c(F)cc(Cl)cc2F)(C(=O)O)C(=O)O)[C@@H](O)[C@@H]1F` [compound 126], the IC50 came out at 25300 nM.
In the case of `Nc1ncnc2c1ncn2[C@@H]1O[C@H](COC(Cc2cccc(OC(F)(F)F)c2)(C(=O)O)C(=O)OCCN2CCOCC2)[C@@H](O)[C@@H]1F` (some centres unmarked) [compound 139], the IC50 worked out at 16500 nM.
As to `Nc1nc(Cl)nc2c1ncn2[C@@H]1O[C@H](COC(Cc2ccc(NC(=O)c3cccs3)cc2)(C(=O)O)C(=O)O)[C@@H](O)[C@@H]1F` [compound 140], the 50% inhibitory concentration (IC50) was found to be 30 nM.
`Nc1nc(Cl)nc2c1ncn2[C@@H]1O[C@H](COC(Cc2ccc(NC(=O)c3cccs3)cc2)(C(=O)O)C(=O)O)[C@@H](O)[C@@H]1F` [compound 141]: the IC50 was 60 nM.
For the compound `Nc1nc(Cl)nc2c1ncn2[C@@H]1O[C@H](COC(Cc2ccc(-c3cccnc3)cc2)(C(=O)O)C(=O)O)[C@@H](O)[C@@H]1F` [compound 142], the concentration for half-maximal inhibition (IC50) is 67 nM.
For `Nc1nc(Cl)nc2c1ncn2[C@@H]1O[C@H](COC(Cc2ccc(-c3cncnc3)cc2)(C(=O)O)C(=O)O)[C@@H](O)[C@@H]1F` [compound 143] the value was 136 nM; for `Nc1nc(Cl)nc2c1ncn2[C@@H]1O[C@H](COC(Cc2ccc(-c3ccc(F)cc3)cc2)(C(=O)O)C(=O)O)[C@@H](O)[C@@H]1F` [compound 144], 65 nM; for `Nc1nc(Cl)nc2c1ncn2[C@@H]1O[C@H](COC(Cc2ccc(C(=O)O)cc2)(C(=O)O)C(=O)O)[C@H](O)[C@@H]1F` [compound 145], 106 nM.

The values above are taken from patent US11034715B2, “Ectonucleotidase inhibitors and methods of use thereof” (Calithera Biosciences, Inc., priority 2016, dated 2021).
